Reference: the NIST ThermoML archive (doi:10.1021/je050020m)
Numbers after ± are expanded uncertainties.

Assay: xn = mol fraction of the nth substance listed
Settings: Liquid, Vibrating tube method

For CCCCCCCCCC [decane] + O=C=O, the mass density (313.1 K, 2005 kPa, x2 = 0.0551) was 717.94 ± 0.55 kg/m3, the mass density (313.1 K, 3035 kPa, x2 = 0.0551) was 718.98 ± 0.55 kg/m3 and the mass density (313.1 K, 4061 kPa, x2 = 0.0551) was 719.88 ± 0.56 kg/m3. The mass density (313.1 K, 5020 kPa, x2 = 0.2369) was 728.09 ± 0.52 kg/m3, the mass density (313.1 K, 5063 kPa, x2 = 0.0551) was 720.72 ± 0.56 kg/m3 and the mass density (313.1 K, 6029 kPa, x2 = 0.0551) was 721.55 ± 0.56 kg/m3. For the same compound, the mass density (313.1 K, 6029 kPa, x2 = 0.2369) was 729.09 ± 0.52 kg/m3, the mass density (313.1 K, 7015 kPa, x2 = 0.2369) was 730.07 ± 0.53 kg/m3 and the mass density (313.1 K, 7028 kPa, x2 = 0.0551) was 722.42 ± 0.57 kg/m3. It also gave a mass density (313.1 K, 7998 kPa, x2 = 0.0551) of 723.25 ± 0.57 kg/m3, a mass density (313.1 K, 8019 kPa, x2 = 0.2369) of 731.05 ± 0.53 kg/m3 and a mass density (313.1 K, 9012 kPa, x2 = 0.2369) of 732.01 ± 0.53 kg/m3. It also gave a mass density (313.1 K, 9019 kPa, x2 = 0.0551) of 724.09 ± 0.57 kg/m3, a mass density (313.1 K, 10010 kPa, x2 = 0.0551) of 724.92 ± 0.58 kg/m3 and a mass density (313.1 K, 10012 kPa, x2 = 0.2369) of 732.96 ± 0.54 kg/m3. For the same compound, the mass density (313.1 K, 11018 kPa, x2 = 0.2369) was 733.88 ± 0.54 kg/m3, the mass density (313.1 K, 11032 kPa, x2 = 0.0551) was 725.72 ± 0.58 kg/m3 and the mass density (313.1 K, 12009 kPa, x2 = 0.2369) was 734.8 ± 0.55 kg/m3. It also gave a mass density (313.1 K, 12046 kPa, x2 = 0.0551) of 726.55 ± 0.58 kg/m3, a mass density (313.1 K, 13016 kPa, x2 = 0.2369) of 735.72 ± 0.55 kg/m3 and a mass density (313.1 K, 13029 kPa, x2 = 0.0551) of 727.32 ± 0.59 kg/m3. It also gave a mass density (313.1 K, 14011 kPa, x2 = 0.0551) of 728.1 ± 0.59 kg/m3, a mass density (313.1 K, 14019 kPa, x2 = 0.2369) of 736.6 ± 0.55 kg/m3 and a mass density (313.1 K, 15006 kPa, x2 = 0.2369) of 737.46 ± 0.56 kg/m3. For the same compound, the mass density (313.1 K, 15013 kPa, x2 = 0.0551) was 728.84 ± 0.6 kg/m3, the mass density (313.1 K, 15992 kPa, x2 = 0.0551) was 729.58 ± 0.6 kg/m3 and the mass density (313.1 K, 16017 kPa, x2 = 0.2369) was 738.34 ± 0.56 kg/m3. The mass density (313.1 K, 16999 kPa, x2 = 0.0551) was 730.32 ± 0.6 kg/m3, the mass density (313.1 K, 17006 kPa, x2 = 0.2369) was 739.17 ± 0.57 kg/m3 and the mass density (313.1 K, 18008 kPa, x2 = 0.2369) was 740.01 ± 0.57 kg/m3. It also gave a mass density (313.1 K, 18044 kPa, x2 = 0.0551) of 731.13 ± 0.61 kg/m3, a mass density (313.1 K, 19016 kPa, x2 = 0.2369) of 740.85 ± 0.58 kg/m3 and a mass density (313.1 K, 19030 kPa, x2 = 0.0551) of 731.85 ± 0.61 kg/m3. For the same compound, the mass density (313.1 K, 19999 kPa, x2 = 0.0551) was 732.57 ± 0.62 kg/m3, the mass density (313.1 K, 20000 kPa, x2 = 0.2369) was 741.67 ± 0.58 kg/m3 and the mass density (313.1 K, 21019 kPa, x2 = 0.2369) was 742.51 ± 0.58 kg/m3. It also gave a mass density (313.1 K, 21031 kPa, x2 = 0.0551) of 733.3 ± 0.62 kg/m3, a mass density (313.1 K, 22002 kPa, x2 = 0.2369) of 743.29 ± 0.59 kg/m3 and a mass density (313.1 K, 22015 kPa, x2 = 0.0551) of 734 ± 0.63 kg/m3. For the same compound, the mass density (313.1 K, 23007 kPa, x2 = 0.2369) was 744.12 ± 0.59 kg/m3, the mass density (313.1 K, 23023 kPa, x2 = 0.0551) was 734.74 ± 0.63 kg/m3 and the mass density (313.1 K, 24008 kPa, x2 = 0.2369) was 744.96 ± 0.6 kg/m3. It also gave a mass density (313.1 K, 24060 kPa, x2 = 0.0551) of 735.5 ± 0.64 kg/m3, a mass density (313.1 K, 25013 kPa, x2 = 0.2369) of 745.78 ± 0.6 kg/m3 and a mass density (313.1 K, 25026 kPa, x2 = 0.0551) of 736.2 ± 0.64 kg/m3. It also gave a mass density (313.11 K, 7015 kPa, x2 = 0.4536) of 742.3 ± 0.49 kg/m3, a mass density (313.11 K, 8024 kPa, x2 = 0.4536) of 743.57 ± 0.49 kg/m3 and a mass density (313.11 K, 9021 kPa, x2 = 0.4536) of 744.82 ± 0.5 kg/m3. It also gave a mass density (313.11 K, 10024 kPa, x2 = 0.4536) of 746.02 ± 0.5 kg/m3, a mass density (313.11 K, 11020 kPa, x2 = 0.4536) of 747.22 ± 0.51 kg/m3 and a mass density (313.11 K, 11029 kPa, x2 = 0.9663) of 714.21 ± 1 kg/m3. For the same compound, the mass density (313.11 K, 12022 kPa, x2 = 0.4536) was 748.39 ± 0.51 kg/m3, the mass density (313.11 K, 12037 kPa, x2 = 0.9663) was 738.68 ± 0.84 kg/m3 and the mass density (313.11 K, 13012 kPa, x2 = 0.4536) was 749.55 ± 0.51 kg/m3. For the same compound, the mass density (313.11 K, 13049 kPa, x2 = 0.9663) was 758.54 ± 0.75 kg/m3, the mass density (313.11 K, 14017 kPa, x2 = 0.4536) was 750.69 ± 0.52 kg/m3 and the mass density (313.11 K, 14020 kPa, x2 = 0.9663) was 774.43 ± 0.69 kg/m3. It also gave a mass density (313.11 K, 15013 kPa, x2 = 0.9663) of 788.48 ± 0.65 kg/m3, a mass density (313.11 K, 15020 kPa, x2 = 0.4536) of 751.81 ± 0.52 kg/m3 and a mass density (313.11 K, 16007 kPa, x2 = 0.9663) of 800.98 ± 0.62 kg/m3. The mass density (313.11 K, 16020 kPa, x2 = 0.4536) was 752.93 ± 0.52 kg/m3, the mass density (313.11 K, 17013 kPa, x2 = 0.4536) was 753.99 ± 0.53 kg/m3 and the mass density (313.11 K, 17027 kPa, x2 = 0.9663) was 812.43 ± 0.59 kg/m3. It also gave a mass density (313.11 K, 17984 kPa, x2 = 0.9663) of 822.21 ± 0.58 kg/m3, a mass density (313.11 K, 18019 kPa, x2 = 0.4536) of 755.06 ± 0.53 kg/m3 and a mass density (313.11 K, 19014 kPa, x2 = 0.4536) of 756.08 ± 0.54 kg/m3. For the same compound, the mass density (313.11 K, 19037 kPa, x2 = 0.9663) was 832.11 ± 0.56 kg/m3.
